Laboratory results as given in ChEMBL document CHEMBL1201862, “PubChem BioAssay data set” (2004).
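Cells were grown in 96-well plates and exposed to each compound for 48 hours at five concentrations; endpoints were interpolated linearly between bracketing concentrations, or set to the highest concentration if not reached. GI50 = concentration required for 50% inhibition of growth.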 Activity calls are given as the source filed them. No stated cut-off is given here; in the data, active = GI50 up to about 1.1 µM and inactive = higher.

Assays:
Experiment in all cases: NCI tumour cell line growth inhibition, 48 h
NCI-H460 = tested on: NCI-H460
NCI-H23 = tested on: NCI-H23
SK-MEL-2 = tested on: SK-MEL-2
SNB-75 = tested on: SNB-75
CAKI-1 = tested on: CAKI-1
MOLT-4 = tested on: MOLT-4
MCF7 = tested on: MCF7
SW-620 = tested on: SW-620
EKVX = tested on: EKVX
COLO 205 = tested on: COLO 205
ACHN = tested on: ACHN
U-251 = tested on: U-251
A498 = tested on: A498
K562 = tested on: K562
UACC-257 = tested on: UACC-257
A549 = tested on: A549
MDA-N = tested on: MDA-N
SK-MEL-5 = tested on: SK-MEL-5
SR = tested on: SR

Structure (SMILES)	GI50 (NCI-H460)	GI50 (NCI-H23)	GI50 (SK-MEL-2)	GI50 (SNB-75)	GI50 (CAKI-1)	GI50 (MOLT-4)	GI50 (MCF7)	GI50 (SW-620)	GI50 (EKVX)	GI50 (COLO 205)	GI50 (ACHN)	GI50 (U-251)	GI50 (A498)	GI50 (K562)	GI50 (UACC-257)	GI50 (A549)	GI50 (MDA-N)	GI50 (SK-MEL-5)	GI50 (SR)
Cc1ccc(/N=N/c2c(O)ccc3cc(S(=O)(=O)O)ccc23)c(C)c1	> 100 µM (inactive)	> 100 µM (inactive)	> 100 µM (inactive)	> 100 µM (inactive)	> 100 µM (inactive)	> 100 µM (inactive)	> 100 µM (inactive)	> 100 µM (inactive)	> 100 µM (inactive)	> 100 µM (inactive)	> 100 µM (inactive)	> 100 µM (inactive)	> 100 µM (inactive)	> 100 µM (inactive)	> 100 µM (inactive)	> 100 µM (inactive)	> 100 µM (inactive)	> 100 µM (inactive)	> 100 µM (inactive)
O=c1oc2cc(/N=C/c3ccccc3Cl)ccc2c2ccccc12	> 100 µM (inactive)	> 100 µM (inactive)	> 100 µM (inactive)	> 100 µM (inactive)	> 100 µM (inactive)	> 100 µM (inactive)	14.2 µM (inactive)	> 100 µM (inactive)	49.2 µM (inactive)	> 100 µM (inactive)	> 100 µM (inactive)	> 100 µM (inactive)	> 100 µM (inactive)	45.9 µM (inactive)	> 100 µM (inactive)	> 100 µM (inactive)	> 100 µM (inactive)	> 100 µM (inactive)	> 100 µM (inactive)
O=C1CSC2(CC(/C=C/C=C/c3ccccc3)=NN2c2cccc(S(=O)(=O)O)c2)N1c1nc2ccccc2s1 (stereo unspecified)	31.3 µM (inactive)	43.8 µM (inactive)	26 µM (inactive)	> 100 µM (inactive)	54.5 µM (inactive)	21.2 µM (inactive)	29.6 µM (inactive)	56.2 µM (inactive)	49 µM (inactive)	50.8 µM (inactive)	40.3 µM (inactive)	24 µM (inactive)	26.4 µM (inactive)	29 µM (inactive)	40.6 µM (inactive)	50.8 µM (inactive)	52 µM (inactive)	35.2 µM (inactive)	21.2 µM (inactive)
CC[C@@]1(O)C(=O)OCc2c1cc1n(c2=O)Cc2c-1nc1ccc(N)cc1c2CC[Si](C)(C)C	< 0.01 µM (active)	< 0.01 µM (active)	0.0409 µM (active)	< 0.01 µM (active)	< 0.01 µM (active)	< 0.01 µM (active)	< 0.01 µM (active)	< 0.01 µM (active)	< 0.0212 µM (active)	< 0.0164 µM (active)	< 0.01 µM (active)	< 0.01 µM (active)	< 0.01 µM (active)	< 0.01 µM (active)	< 0.01 µM (active)	< 0.01 µM (active)	< 0.01 µM (active)	< 0.01 µM (active)	< 0.01 µM (active)
CC(C)[Si](CC1=CCCCC12C(=O)N(COCC[Si](C)(C)C)c1ccccc12)(C(C)C)C(C)C (stereo unspecified)	82.2 µM (inactive)	66.8 µM (inactive)	> 100 µM (inactive)	> 100 µM (inactive)	> 100 µM (inactive)	> 100 µM (inactive)	61 µM (inactive)	> 100 µM (inactive)	63.8 µM (inactive)	> 100 µM (inactive)	> 100 µM (inactive)	> 100 µM (inactive)	> 100 µM (inactive)	> 100 µM (inactive)	37.6 µM (inactive)	> 100 µM (inactive)	> 100 µM (inactive)	43.7 µM (inactive)	> 100 µM (inactive)
O=S(=O)(CC(O)C(Cl)(Cl)Cl)NNc1ccccc1 (stereo unspecified)	75.3 µM (inactive)	> 100 µM (inactive)	> 100 µM (inactive)	> 100 µM (inactive)	> 100 µM (inactive)	> 100 µM (inactive)	> 100 µM (inactive)	> 100 µM (inactive)	> 100 µM (inactive)	75 µM (inactive)	> 100 µM (inactive)	> 100 µM (inactive)	> 100 µM (inactive)	23 µM (inactive)	> 100 µM (inactive)	> 100 µM (inactive)	> 100 µM (inactive)	74.1 µM (inactive)	> 100 µM (inactive)
COc1cc(C2c3cc4c(cc3OC(N3CCOCC3)C2C)OCO4)cc(OC)c1OC(C)=O (stereo unspecified)	7.69 µM (inactive)	31.3 µM (inactive)	12.9 µM (inactive)	3.74 µM (inactive)	16.6 µM (inactive)	13 µM (inactive)	8.59 µM (inactive)	6.12 µM (inactive)	47.5 µM (inactive)	19.3 µM (inactive)	26.6 µM (inactive)	14.3 µM (inactive)	27.8 µM (inactive)	3.81 µM (inactive)	53.8 µM (inactive)	15 µM (inactive)	1.99 µM (inactive)	4.46 µM (inactive)	6.25 µM (inactive)
CCCCCCCCCCc1c2nc(c(CCCCCCCCCC)c3ccc([nH]3)c(CCCCCCCCCC)c3nc(c(CCCCCCCCCC)c4ccc1[nH]4)C=C3)C=C2	> 100 µM (inactive)	> 100 µM (inactive)	> 100 µM (inactive)	> 100 µM (inactive)	> 100 µM (inactive)	> 100 µM (inactive)	> 100 µM (inactive)	> 100 µM (inactive)	> 100 µM (inactive)	> 100 µM (inactive)	> 100 µM (inactive)	> 100 µM (inactive)	> 100 µM (inactive)	> 100 µM (inactive)	> 100 µM (inactive)	> 100 µM (inactive)	> 100 µM (inactive)	> 100 µM (inactive)	> 100 µM (inactive)
O=C1C=CC(=O)c2c1ccc1c3ccccc3n(-c3cccc([N+](=O)[O-])c3)c21	> 10 µM (inactive)	2.65 µM (inactive)	> 10 µM (inactive)	> 10 µM (inactive)	2.55 µM (inactive)	0.355 µM (active)	2.29 µM (inactive)	0.804 µM (active)	> 5.45 µM (inactive)	1.42 µM (inactive)	1.7 µM (inactive)	9.71 µM (inactive)	5.85 µM (inactive)	0.367 µM (active)	2.62 µM (inactive)	> 10 µM (inactive)	2.2 µM (inactive)	5.57 µM (inactive)	0.412 µM (active)
OCCO[P+]1(OCCO)n2c3ccc2C(c2ccccc2)=C2C=CC(=N2)C(c2ccccc2)=c2ccc(n21)=C(c1ccccc1)C1=NC(=C3c2ccccc2)C=C1	0.0378 µM (active)	0.0327 µM (active)	0.0481 µM (active)	< 0.0144 µM (active)	0.783 µM (active)	0.0545 µM (active)	0.0267 µM (active)	0.129 µM (active)	0.104 µM (active)	0.013 µM (active)	0.251 µM (active)	0.0152 µM (active)	0.349 µM (active)	0.0109 µM (active)	0.0207 µM (active)	0.0389 µM (active)	0.0344 µM (active)	0.0296 µM (active)	< 0.0106 µM (active)
CC(=O)Oc1ccc(/C=C/C(=O)O[C@@H](C)[C@H](C)OC(=O)/C=C/c2ccc(OC(C)=O)c(OC(C)=O)c2)cc1OC(C)=O	5.94 µM (inactive)	6.5 µM (inactive)	19.7 µM (inactive)	20.1 µM (inactive)	27.3 µM (inactive)	2.22 µM (inactive)	20 µM (inactive)	2.42 µM (inactive)	22.9 µM (inactive)	29.5 µM (inactive)	11.4 µM (inactive)	17.1 µM (inactive)	24.7 µM (inactive)	3.99 µM (inactive)	18.7 µM (inactive)	13.8 µM (inactive)	11.1 µM (inactive)	10.6 µM (inactive)	5.77 µM (inactive)
COc1cc(O)c2c(O)c3c(c4c2c1[C@]1(C4)C(C)=CCCC1(C)C)[C@H](O)[C@@]1(O)CC(O)=C(C(N)=O)C(=O)[C@@]1(O)C3=O	0.0435 µM (active)	0.164 µM (active)	0.236 µM (active)	0.108 µM (active)	0.294 µM (active)	0.333 µM (active)	0.164 µM (active)	0.0619 µM (active)	0.18 µM (active)	0.108 µM (active)	0.209 µM (active)	0.0453 µM (active)	0.163 µM (active)	0.123 µM (active)	0.231 µM (active)	0.0499 µM (active)	0.333 µM (active)	0.175 µM (active)	0.269 µM (active)
C(#CC1(Nc2ccccc2)CCN(Cc2ccccc2)CC1)C1(Nc2ccccc2)CCN(Cc2ccccc2)CC1	16.3 µM (inactive)	37.8 µM (inactive)	10.5 µM (inactive)	10 µM (inactive)	24.3 µM (inactive)	4.17 µM (inactive)	31.5 µM (inactive)	11.2 µM (inactive)	40.6 µM (inactive)	1.31 µM (inactive)	39.4 µM (inactive)	19.9 µM (inactive)	30.1 µM (inactive)	1.62 µM (inactive)	2.08 µM (inactive)	23.6 µM (inactive)	14.5 µM (inactive)	3.88 µM (inactive)	3.15 µM (inactive)
C=CCOC(=O)Cn1cc(C)c(=O)[nH]c1=O	> 100 µM (inactive)	> 100 µM (inactive)	> 100 µM (inactive)	> 100 µM (inactive)	> 100 µM (inactive)	> 100 µM (inactive)	> 100 µM (inactive)	> 100 µM (inactive)	> 100 µM (inactive)	> 100 µM (inactive)	> 100 µM (inactive)	> 100 µM (inactive)	> 100 µM (inactive)	> 100 µM (inactive)	> 100 µM (inactive)	> 100 µM (inactive)	> 100 µM (inactive)	> 100 µM (inactive)	> 100 µM (inactive)
